Assay results from patent US11608483B2, “Inverted culture plate system for cellular co-culture” (University of Maryland, Baltimore, priority 2016, dated 2023).
Read-outs that look alike come from different tables or passages of the source.

Experiments:
[1] = system: CYP2B6 and CYP3A4 expression; assay: CYP2B6 and CYP3A4 mRNA (real-time RT-PCR) and protein (western blot) induction in human primary hepatocytes
Method: (§1) The age and sex of each liver donor used are detailed in Table 1.
(§2) Total RNA was isolated from cells using TRIzol reagent (ThermoFisher, Rockford, Ill.) and reverse transcribed using a High Capacity cDNA archive kit (Applied
(§3) Biosystems, Foster, Calif.) according to the manufacturer's instructions. Real-time PCR assay was performed using SYBR Green PCR Mastermix (Qiagen, Germantown, Md.) on an ABI StepOnePlus real-timePCR system (Applied Biosystems). […] Expression values were quantified using the following equation: fold over control=2^ΔΔCt method, where ΔCt represents the differences in cycle threshold numbers between the target gene and glyceraldehyde-3-phosphate dehydrogenase, and ΔΔCt represents the relative change in these differences between control and treatment groups.
(§4) Subsequently, membranes were incubated with primary antibodies against CYP2B6 (1:200; Santa Cruz Biotechnology, Santa Cruz, Calif.), CYP3A4 (1:5000; Sigma-Aldrich), or β-actin (1:50,000, Sigma-Aldrich) at 4° C. overnight. Blots were developed with West Pico chemiluminescent substrates (ThermoFisher) after incubation with horse-radish peroxidase secondary antibodies.

hCAR [2] = molecular target: T1, hCAR (Homo sapiens, UniProt Q14994); assay: Nuclear translocation of EYFP-hCAR in HPHs; assay type: cell-based; design: expressed in transfected cells; conditions: HPHs donor 123; 1 mM PB, 10 μM others; 8 hours
T1 sequence (Q14994 1-348 isoform Q14994-2): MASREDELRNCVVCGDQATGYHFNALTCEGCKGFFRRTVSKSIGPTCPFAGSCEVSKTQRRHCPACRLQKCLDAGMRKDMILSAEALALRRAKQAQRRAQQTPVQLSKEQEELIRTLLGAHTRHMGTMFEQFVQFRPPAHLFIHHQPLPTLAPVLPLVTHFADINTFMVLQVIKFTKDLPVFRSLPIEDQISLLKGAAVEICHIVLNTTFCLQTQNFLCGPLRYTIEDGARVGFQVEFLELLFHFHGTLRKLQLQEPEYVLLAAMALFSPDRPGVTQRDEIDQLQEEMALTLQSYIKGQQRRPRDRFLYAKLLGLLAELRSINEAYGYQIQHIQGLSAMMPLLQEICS
Method: After treatment, cells were fixed with 4% paraformaldehyde, stained with 1 μg/ml 4′,6-diamidino-2-phenylindole (Sigma-Aldrich) for 30 minutes, and EYFP-hCAR localization in hepatocytes was visualized on a Nikon Eclipse TI fluorescent microscope (Nikon, Melville, N.Y.). Quantitative distribution of EYFP-hCAR was analyzed using General Analysis in the Nikon Elements AR High Content Analysis software package (version 4.50.00). Nuclear localization was defined and quantified as the percentage of total enhanced yellow fluorescent protein that overlaps with 4′,6-diamidino-2-phenylindole.

hCAR [3] = molecular target: T1, hCAR; assay: CYP2B6 luciferase reporter assay in HepG2-CAR-2B6 stable cells without HPHs; assay type: cell-based; design: expressed in transfected cells; conditions: 24 h; for hCAR activity (CYP2B6 reporter luciferase activity): HepG2-CAR-2B6 cells without HPHs
[4] = system: human primary hepatocytes (HPHs); assay: LC-MS/MS measurement of PK11195 metabolism in HPHs; assay type: in vitro ADME; conditions: for LC-MS/MS peak of metabolite in HPH culture medium: after 1 hour incubation of 10 μM PK11195 with HPHs, versus 0 hour
Method: Media (450 μl ) were collected from each well at 0 and 1 hours and frozen immediately at −80° C. Samples were thawed on ice before adding 50 μl of medium to 450 μl of ice-cold methanol/H2O (8:1, v/v). After centrifugation at 16,000g for 30 minutes, 200 μl of supernatant was transferred to a separate tube and dried down before resuspension in 200 μl H2O/ACN (1:1, v/v) with 0.1% formic acid. Authentic standards were prepared to 1 μM in H2O/ACN (1:1, v/v) with 0.1% formic acid. LC-MS/MS analysis was performed on a TSQ Quantum Ultra Triple Stage Quadrupole Mass Spectrometer coupled to an Ultimate 3000 RS Liquid Chromatogram System (Thermo Scientific, Waltham, Mass.). The LC separation was performed on a Waters (Milford, Mass.) BEH C18 column (2.1×50 mm, 1.7 μm) operated at 30° C. Solvents A and B consisted of 0.1% formic acid in H2O and 0.1% formic acid in ACN, respectively. The gradient program was 0.0-0.5 minutes, 50% B; 0.5-2.0 minutes, gradient to 95% B; 2.0-3.5 minutes, 95% B; 3.5-4.0 minutes, gradient to 50% B; and 4.0-5.0 minutes, 50% B. The flow rate was 0.5 ml/min and injection volume was 5 μl. Tandem mass spectrometry was performed in the positive-ion mode and the electrospray ionization source parameters were as follows: spray voltage, 3000; capillary temperature, 325; sheath gas pressure, 40; auxiliary gas pressure, 15; capillary offset, 35; and tube lens offset, 80. […] Data collection and analysis were performed using Xcalibur V 2.1 (Thermo Scientific).

hCAR1+A = molecular target: T2, hCAR1+A (Homo sapiens, UniProt Q14994, INS274A); assay: CAR1+A/CYP2B6-2.2k reporter assay in transfected HepG2 cells; assay type: cell-based; conditions: HepG2 cells without HPHs, 24 h
T2 construct: expressed in transfected cells; host or cells: HepG2
T2 sequence (Q14994 with tags, fused parts or gaps isoform Q14994-2 INS270A): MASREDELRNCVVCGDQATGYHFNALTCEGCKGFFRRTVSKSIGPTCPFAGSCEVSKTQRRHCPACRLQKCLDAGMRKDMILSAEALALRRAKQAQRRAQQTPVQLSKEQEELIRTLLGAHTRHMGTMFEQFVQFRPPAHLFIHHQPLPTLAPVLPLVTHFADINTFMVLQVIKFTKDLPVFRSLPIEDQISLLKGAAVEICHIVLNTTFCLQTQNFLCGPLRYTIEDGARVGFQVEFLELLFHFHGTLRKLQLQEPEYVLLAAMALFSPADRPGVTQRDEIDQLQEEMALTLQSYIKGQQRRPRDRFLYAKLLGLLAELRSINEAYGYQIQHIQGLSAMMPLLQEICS
T2 sequence (P19793 1-462 partner): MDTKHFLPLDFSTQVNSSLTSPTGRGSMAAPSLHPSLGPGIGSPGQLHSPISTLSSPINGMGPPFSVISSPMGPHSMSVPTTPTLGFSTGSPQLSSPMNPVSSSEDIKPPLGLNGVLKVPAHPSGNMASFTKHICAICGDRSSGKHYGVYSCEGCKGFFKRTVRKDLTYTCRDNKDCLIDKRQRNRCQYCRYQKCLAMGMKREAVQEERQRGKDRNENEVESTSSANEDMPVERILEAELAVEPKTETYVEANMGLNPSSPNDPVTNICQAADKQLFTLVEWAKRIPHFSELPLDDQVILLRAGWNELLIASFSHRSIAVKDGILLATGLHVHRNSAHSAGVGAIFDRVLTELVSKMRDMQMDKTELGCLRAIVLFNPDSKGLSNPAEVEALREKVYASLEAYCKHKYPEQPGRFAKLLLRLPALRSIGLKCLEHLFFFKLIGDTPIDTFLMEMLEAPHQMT

HEK-293 cells [5] = conditions: HEK-293 cultured alone, concentration up to 1 mM, 24 hrs
HEK-293 cells [6] = conditions: HPH/HEK-293 co-culture versus HEK-293 alone, 24 hrs
[7] = Mordente A et al., 2009; cited from earlier work
hCAR [8] = molecular target: T1, hCAR; conditions: 8 μM KET, PK11195 1 and 10 μM, HPH co-culture, 24 h
[9] = system: CYP2B6 and CYP3A4 expression; assay: CYP2B6 and CYP3A4 induction in PXR-KO HepaRG cells; conditions: differentiated PXR-KO HepaRG cells; 10 μM; 24 h mRNA, 72 h protein
Method: as §1, §2, §3, §4

hCAR/GRIP1 interaction = molecular target: T3, hCAR/GRIP1 interaction (Homo sapiens, UniProt Q14994); assay: Mammalian two-hybrid assay in COS1 cells, CAR/GRIP1; assay type: cell-based; conditions: 24 h
T3 construct: expressed in transfected cells; host or cells: COS1
T3 sequence (Q14994 1-348 isoform Q14994-2): T1 sequence (Q14994 1-348 isoform Q14994-2)
Method: (§5) COS1 cells seeded in 24-well plates were transfected with 110 ng of the reporter gene plasmid pG5luc, 80 ng of expression plasmids encoding the respective VP16AD/hCAR fusions, 40 ng of expression plasmids encoding GAL4-DBD/coregulatory fusions, and 20 ng of reference plasmid pRL-TK, each well using X-tremeGENE 9 DNA Transfection Reagent (Sigma-Aldrich). […] Luciferase activities were measured in cell lysates using the Dual Luciferase Kit (Promega). Data represent the mean±S.D. of three individual transfections.

hCAR/SRC-1 interaction = molecular target: T4, hCAR/SRC-1 interaction (Homo sapiens, UniProt Q14994); assay: Mammalian two-hybrid assay in COS1 cells, CAR/SRC-1; assay type: cell-based; conditions: 24 h
T4 construct: expressed in transfected cells; host or cells: COS1
T4 sequence (Q14994 1-348 isoform Q14994-2): T1 sequence (Q14994 1-348 isoform Q14994-2)
Method: as §5

[10] = system: CYP2B6 and CYP3A4 expression; assay: CYP2B6 and CYP3A4 induction in wild-type HepaRG cells; assay type: cell-based; conditions: differentiated wild-type HepaRG cells; 10 μM PK11195; 24 h mRNA, 72 h protein
Method: as §1, §2, §3, §4

Question: Which “induction of CYP2B6 and CYP3A4 at mRNA and protein levels” value (“induction … at mRNA and protein levels” for short) ([1]; HPHs from liver donors 107 and 122, 1 mM PB, 1 μM CITCO, 10 μM RIF, 10 μM PK11195, 24 h mRNA, 72 h protein) does the source give for `Clc1ccc(-c2nc3sccn3c2C=NOCc2ccc(Cl)c(Cl)c2)cc1` [CITCO, 6-(4-Chlorophenyl)imidazo[2,1-b][1,3]thiazole-5-carbaldehyde-O-(3,4-dichlorobenzyl)oxime] here?
Answer: Its value is “robustly induced”.

Question: With `O=C(O)c1cc2ccccc2c(-c2ccccc2Cl)n1` [COOH-PK, 1-(2-Chlorophenyl)isoquinoline-3-carboxylic acid] as the compound, how does the “nuclear translocation of hCAR (EYFP-hCAR)” value (hCAR [2]) read?
Answer: The value was “negligible CAR nuclear accumulation”.

Question: And the “hCAR activity (CYP2B6 reporter luciferase activity)” value (hCAR [3])?
Answer: Its value is “no effect on CAR activity”.

Question: And the “induction … at mRNA and protein levels” value ([1]; HPHs from liver donors 120 and 121, 0.1, 1 and 10 μM, 24 h mRNA, 72 h protein)?
Answer: The value was “negligible effects”.

Question: And the “LC-MS/MS peak of metabolite in HPH culture medium” value [4]?
Answer: Its value is “significantly increased in intensity”.

Question: What about the “hCAR activation in the CAR1+A/CYP2B6-2.2k reporter assay” value (hCAR1+A) of the same compound?
Answer: The value was “negligible CAR activation”.

Question: Which cytotoxicity (HEK-293 cells [5]) does the source give for `O=P1(N(CCCl)CCCl)NCCCO1` (stereo not shown) [CPA, cyclophosphamide] here?
Answer: Its cytotoxicity is “no cytotoxicity”.

Question: What about the metabolism-dependent cytotoxicity (HEK-293 cells [6]) of the same compound?
Answer: The metabolism-dependent cytotoxicity was “showed metabolism-dependence in the co-culture only”.

Question: For `COc1cccc2c1C(=O)c1c(O)c3c(c(O)c1C2=O)C[C@@](O)(C(=O)CO)C[C@@H]3O[C@H]1C[C@H](N)[C@H](O)[C@H](C)O1` [DOX, doxorubicin], which “fraction eliminated from the body unchanged” value [7] is on record?
Answer: Its value is “over 50%”.

Question: For `CC(=O)N1CCN(c2ccc(OCC3COC(Cn4ccnc4)(c4ccc(Cl)cc4Cl)O3)cc2)CC1` (stereo not shown) [KET, ketoconazole], which “effect of KET co-treatment on repression of CAR activity by PK11195” value (hCAR [3]; 8 μM KET, HepG2-CAR-2B6 cells alone) is on record?
Answer: Its value is “not influenced”.

Question: And the “effect of KET co-treatment on conversion of PK11195 from CAR antagonist to CAR activator” value (hCAR [8])?
Answer: Its value is “significantly inhibited the conversion of PK11195”.

Question: Which “induction of CYP2B6 and CYP3A4 mRNA and protein” value [9] does the source give for `CC[C@@H](C)NC(=O)c1cc2ccccc2c(-c2ccccc2Cl)n1` [ND-PK, (R)-N-Desmethyl PK11195] here?
Answer: Its value is “significantly induced”.

Question: What about the “nuclear translocation of hCAR (EYFP-hCAR)” value (hCAR [2]) of the same compound?
Answer: The value was “robustly increased nuclear translocation”.

Question: What about the “hCAR activity (CYP2B6 reporter luciferase activity)” value (hCAR [3]) of the same compound?
Answer: The value was “activated hCAR in a concentration-dependent manner”.

Question: And the “interaction between hCAR and GRIP1” value (hCAR/GRIP1 interaction; 10 μM, COS1 cells)?
Answer: Its value is “moderately enhanced”.

Question: What about the “effect on PK11195-repressed binding of GRIP1 to hCAR” value (hCAR/GRIP1 interaction; ND-PK + PK11195 co-treatment) of the same compound?
Answer: The value was “only minimally affecting”.

Question: And the “interaction between hCAR and SRC-1” value (hCAR/SRC-1 interaction; 10 μM, COS1 cells)?
Answer: The value was “moderately enhanced”.

Question: And the “effect on PK11195 mediated repression of SRC-1/CAR interaction” value (hCAR/SRC-1 interaction; ND-PK + PK11195 co-treatment)?
Answer: Its value is “markedly rescued”.

Question: And the “LC-MS/MS peak of metabolite in HPH culture medium” value [4]?
Answer: The value was “significantly increased in intensity”.

Question: What about the “hCAR activation in the CAR1+A/CYP2B6-2.2k reporter assay” value (hCAR1+A) of the same compound?
Answer: Its value is “robustly activates hCAR to a level similar to the positive control”.

Question: Which “induction … at mRNA and protein levels” value ([1]; hepatocytes) does the source give for `CCC1(c2ccccc2)C(=O)NC(=O)NC1=O` [PB, Phenobarbital] here?
Answer: The value was “robustly induced”.

Question: For `CCC(C)N(C)C(=O)c1cc2ccccc2c(-c2ccccc2Cl)n1` (stereo not shown) [PK11195, 1-(2-chlorophenyl)-N-methyl-N-(1-methylpropyl)-3-isoquinolinecarboxamide], which “induction of CYP2B6 and CYP3A4 mRNA and protein” value [9] is on record?
Answer: The value was “significantly induced”.

Question: And the “induction of CYP2B6 and CYP3A4 mRNA and protein” value [10]?
Answer: Its value is “induced the expression of CYP2B6 and CYP3A4 mRNA and protein”.

Question: And the “induction … at mRNA and protein levels” value [1]?
Answer: Its value is “robustly induced”.

Question: What about the “metabolism of PK11195 by HPHs” value ([4]; 10 μM PK11195, media at 0 and 1 hour) of the same compound?
Answer: Its value is “metabolized by HPHs to COOH-PK and ND-PK”.
